Where a SMILES comes first, the peptide text is derived from it. Bridges are numbered along the chain shown (N, C = ends). [ ]: non-standard residue; d: D form. S5 = C=CCCC[C@](C)(N)C(=O)O
Experiments:
[1] = test system: live SARS-CoV-2 virus (variant B.1.1)
[2] = test system: full-length SARS-CoV-2 S protein (Wuhan variant); test: Competition of P1st with FAM-labeled peptides for S protein binding (fluorescent immunoassay); details: P1st at 25 μM; P1-FAM 3.25 to 25 μM; fluorescence intensity; result in words
[3] = test system: PVP with Wuhan variant S-protein
[4] = test system: full-length S protein of SARS-CoV-2 (Wuhan variant); type: binding; details: S protein 1 μg/mL coated; peptide incubated 2 h at RT; fluorescence 483 nm excitation/530 nm emission; result in words
[5] = test system: full-length S protein of SARS-CoV-2 (Wuhan variant); test: Immunosorbent assay of P2 binding to immobilized S protein, detected with anti-P1 antibodies; details: P2 incubated 2 h at 37 °C; anti-P1 antibody 1 μg/mL, anti-rabbit IgG-HRP, TMB, A450-620; result in words

CC[C@H](C)[C@H](NC(=O)[C@@H](NC(=O)[C@H](CO)NC(C)=O)[C@@H](C)O)C(=O)N[C@@H](CCC(=O)O)C(=O)N[C@@H](CCC(=O)O)C(=O)N[C@@H](CCC(N)=O)C(=O)N[C@@H](C)C(=O)N[C@@H](CCCCN)C(=O)N[C@H](C(=O)N[C@@]1(C)CCCC=CCCC[C@@](C)(C(=O)N[C@@H](CC(N)=O)C(=O)N[C@@H](Cc2c[nH]cn2)C(=O)N[C@@H](CCC(=O)O)C(=O)N[C@@H](C)C(=O)N[C@@H](CCC(=O)O)C(=O)N[C@@H](CC(=O)O)C(=O)N[C@@H](CC(C)C)C(=O)N[C@@H](Cc2ccccc2)C(=O)N[C@@H](Cc2ccc(O)cc2)C(=O)N[C@@H](CCC(N)=O)C(=O)N[C@@]2(C)CCCC=CCCC[C@@](C)(C(=O)N[C@@H](Cc3c[nH]c4ccccc34)C(=O)N[C@@H](CC(N)=O)C(=O)N[C@@H](Cc3ccc(O)cc3)C(N)=O)NC(=O)[C@H](C)NC(=O)[C@H](CC(C)C)NC(=O)[C@H](CO)NC2=O)NC(=O)[C@H](CCCCN)NC(=O)[C@H](CC(=O)O)NC(=O)[C@H](CC(C)C)NC1=O)[C@@H](C)O [P1st] (Ac-STIEEQAKT[S5]LDK[S5]NHEAEDLFYQ[S5]SLA[S5]WNY-NH2; staple 10-14, 25-29)
IC50 ([1]; live virus (variant B.1.1, 4 h)): 7.04 µM
Competition with other peptides (P1-FAM, SAP) for binding to S protein [2]: able to efficiently compete
IC50 ([3]; 48 h): 25.4 µM
IC50 (BA.1-like (Omicron) PVP; 48 h): 18.3 µM

EDLFYQ [SAP6, short ACE2 peptide, 6 aa, described previously [23]]
Binding of FAM-labeled peptide to immobilized full-length S protein [4]: reasonable binding

EDLFYQSSL [SAP2, short ACE2 peptide, 9 aa, described previously [23]]
Binding of FAM-labeled peptide to immobilized full-length S protein [4]: reasonable binding

GKGDFRIL [SAP4, reference compound]
Inhibitory activity on live SARS-CoV-2 infection of Vero cells at high concentration ([1]; 300 μM peptide, […], judged non-specific, result in words): Inhibitory activity
Binding of FAM-labeled peptide to immobilized full-length S protein [4]: failed to bind
Inhibitory activity on PVP (Wuhan S protein) entry at high concentration ([3]; 200 μM peptide, HEK/ACE2 cells, judged non-specific, result in words): Marked inhibitory activity

MSTIEEQAKTFLDKFNHEAEDLFYQSSLASWNYNTNITEENVQNMNNAGDKWSAFLKEQSTLAQMYPLQEIQNLTVKLQLQALQ [P2]
P2 binding to immobilized full-length S protein [5]: demonstrated their binding ability
Inhibition of PVP (Wuhan S protein) entry into ACE2-overexpressing cells ([3]; peptide 0 to 56 μM (Figure 3), […], flow cytometry, result in words): could not inhibit entry
Inhibition of PVP (BA.1-like S protein) entry into ACE2-overexpressing cells (BA.1-like (Omicron) PVP; […], flow cytometry, result in words): failed to inhibit PVP entry

STIEEQAKTFLDAFNHAAAALFAQSSLASWNY [P1m, control P1 with alanine substitutions of key amino acids]
Binding of FAM-labeled peptide to immobilized full-length S protein [4]: failed to bind

TFLDKFNHEAEDLFYQ [SAP1, short ACE2 peptide, 16 aa, described previously [23]]
Binding of FAM-labeled peptide to immobilized full-length S protein [4]: reasonable binding

— publication PMC10179272, “SARS-CoV-2 Binding and Neutralization Properties of Peptides Derived from N-Terminus of Human ACE2” (International Journal of Molecular Sciences, 2023)
